Measurements published in patent publication US20250084056A1, “SUBSTITUTED OXOISOINDOLINYL PIPERIDINE-2,6-DIONE COMPOUNDS” (BRISTOL-MYERS SQUIBB COMPANY, priority 2023, published 2025).

Legend:
Cyclin E1 = Cyclin E1 (Homo sapiens, UniProt P24864+Q96SW2); assay: Cellular degradation of Cyclin E1 (Western blot) in HCC1569 cells; type: cell-based; design: endogenous in cells; host or cells: HCC1569 (ATCC CRL-2330); settings: HCC1569 cancer cells, 24 h, FIG. 1A
Protocol: (§1) The assay measured the ability of the compound to degrade Cyclin E1, inhibit RB phosphorylation, and to determine the selectivity against degradation of GSPT1 in cancer cells in vitro. HCC1569 cells (ATCC #CRL-2330) were cultured in RPMI media (Gibco, catalog A104910) supplemented with 10% FBS (Gibco, catalog 10091148). Cells were plated in tissue culture-treated 6 well plates at a density of 0.5 million cells per well in 2 mL media. The cells were then incubated overnight in a cell culture incubator (5% CO2 and 37° C.) and allowed to attach to the plate. The following day cells were dosed with compounds at the desired concentrations. Compounds were first resuspended in DMSO to make 10 mM stock, and 20 μM stock was prepared by diluting 10 mM stock in culture media. […] Total protein concentration was measured using a BCA assay kit (Thermo Scientific, cat #P123227). […] Protein was then detected by incubating blots with 2 mL of HRP detection reagent (Thermo scientific cat #A38556) for one minute at room temperature. Excess reagent was drained and gently removed on a Kimwipe and the chemiluminescence signal was detected using Fluorchem imaging system. […] Relative quantification of western blots was performed using ImageJ software, data was then normalized to loading control (β-Actin) first and then to the DMSO-treated sample. […]

[1] = test system: NIHOVCAR3 ovarian adenocarcinoma xenograft model; assay: In vivo xenograft tumor efficacy study, NIHOVCAR3; design: species or system mice; settings: OVCAR3 xenografts, repeated dosing
Protocol: (§2) The anti-cancer efficacy of Example 35 was evaluated in xenograft models by measuring the reduction in tumor volume in animals treated with Example 35 compared to vehicle control animals. First, 5-10×10^6 tumor cells/animal in a 1:1 Matrigel® mix (0.2 mL total volume) were injected subcutaneously into female NSG mice (for NIHOVCAR3) and SCID mice (for HCC1569). Both strains of mice were purchased from Jackson Laboratory. Once tumors reached ˜150-200 mm^3, animals were randomized into groups of 8-10 animals/treatment arm for efficacy studies. Example 35 was administered via oral gavage (PO) at indicated doses and regimens (Table 7). Tumor growth and body weight were measured twice/week during the course of the study to evaluate efficacy and signs of toxicity.
(§3) Example 35 was formulated in 10% ethanol, 10% Vitamin E—TPGS, 30% propylene glycol, 50% PEG400 and administered by oral gavage (final volume 0.2 mL) at the doses indicated in Table 7. […]
(§4) The efficacy for each treated arm at different dose levels were calculated using the following formula: % ΔT/ΔC=[(TVT−TVT0)/(TVC−TVC0)]×100%. […] The percentage of tumor growth inhibition was calculated from the formula: % TGI=[100%−(% ΔT/ΔC)]. […]
(§5) Example 35 was evaluated for in vivo single-agent efficacy against the HCC1569 breast carcinoma xenograft model and NIHOVCAR3 ovarian adenocarcinoma xenograft model.

pS807/811 Rb1 = assay: Inhibition of RB1 phosphorylation (Western blot) in HCC1569 cells; type: cell-based; settings: HCC1569 cancer cells, 24 h, FIG. 1B
Protocol: as §1

[2] = test system: HCC1569 breast carcinoma xenograft model; assay: In vivo xenograft tumor efficacy study, HCC1569; design: species or system mice; settings: HCC1569 xenografts, repeated dosing
Protocol: as §2, §3, §4, §5

Sequence of Cyclin E1 (P24864 whole entry): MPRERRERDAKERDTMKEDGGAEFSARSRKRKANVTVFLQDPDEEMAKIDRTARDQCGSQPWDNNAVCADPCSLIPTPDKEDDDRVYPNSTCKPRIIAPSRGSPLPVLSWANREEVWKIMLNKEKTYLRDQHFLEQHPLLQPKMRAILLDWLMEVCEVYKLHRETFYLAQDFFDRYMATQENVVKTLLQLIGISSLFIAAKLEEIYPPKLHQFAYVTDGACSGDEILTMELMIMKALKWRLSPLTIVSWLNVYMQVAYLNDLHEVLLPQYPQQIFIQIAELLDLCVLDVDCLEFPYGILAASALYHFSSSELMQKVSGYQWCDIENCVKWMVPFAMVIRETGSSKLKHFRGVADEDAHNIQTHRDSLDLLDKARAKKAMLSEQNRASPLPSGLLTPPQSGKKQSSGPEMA
Sequence of Cyclin E1 (Q96SW2 whole entry): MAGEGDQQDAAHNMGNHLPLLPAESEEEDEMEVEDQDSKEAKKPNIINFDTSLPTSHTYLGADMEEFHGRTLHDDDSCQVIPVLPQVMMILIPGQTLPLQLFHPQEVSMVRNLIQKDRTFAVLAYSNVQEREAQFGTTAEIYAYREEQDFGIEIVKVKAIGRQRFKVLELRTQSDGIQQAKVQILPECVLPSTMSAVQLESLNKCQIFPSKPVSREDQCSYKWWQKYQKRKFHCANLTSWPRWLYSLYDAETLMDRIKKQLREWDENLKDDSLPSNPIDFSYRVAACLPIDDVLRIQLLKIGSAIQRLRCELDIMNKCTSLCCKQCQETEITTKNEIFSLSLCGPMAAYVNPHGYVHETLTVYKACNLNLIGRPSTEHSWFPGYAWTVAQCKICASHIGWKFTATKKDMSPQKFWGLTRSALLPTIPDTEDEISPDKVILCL
Sequence of Cyclin E1 (Q16531 whole entry partner): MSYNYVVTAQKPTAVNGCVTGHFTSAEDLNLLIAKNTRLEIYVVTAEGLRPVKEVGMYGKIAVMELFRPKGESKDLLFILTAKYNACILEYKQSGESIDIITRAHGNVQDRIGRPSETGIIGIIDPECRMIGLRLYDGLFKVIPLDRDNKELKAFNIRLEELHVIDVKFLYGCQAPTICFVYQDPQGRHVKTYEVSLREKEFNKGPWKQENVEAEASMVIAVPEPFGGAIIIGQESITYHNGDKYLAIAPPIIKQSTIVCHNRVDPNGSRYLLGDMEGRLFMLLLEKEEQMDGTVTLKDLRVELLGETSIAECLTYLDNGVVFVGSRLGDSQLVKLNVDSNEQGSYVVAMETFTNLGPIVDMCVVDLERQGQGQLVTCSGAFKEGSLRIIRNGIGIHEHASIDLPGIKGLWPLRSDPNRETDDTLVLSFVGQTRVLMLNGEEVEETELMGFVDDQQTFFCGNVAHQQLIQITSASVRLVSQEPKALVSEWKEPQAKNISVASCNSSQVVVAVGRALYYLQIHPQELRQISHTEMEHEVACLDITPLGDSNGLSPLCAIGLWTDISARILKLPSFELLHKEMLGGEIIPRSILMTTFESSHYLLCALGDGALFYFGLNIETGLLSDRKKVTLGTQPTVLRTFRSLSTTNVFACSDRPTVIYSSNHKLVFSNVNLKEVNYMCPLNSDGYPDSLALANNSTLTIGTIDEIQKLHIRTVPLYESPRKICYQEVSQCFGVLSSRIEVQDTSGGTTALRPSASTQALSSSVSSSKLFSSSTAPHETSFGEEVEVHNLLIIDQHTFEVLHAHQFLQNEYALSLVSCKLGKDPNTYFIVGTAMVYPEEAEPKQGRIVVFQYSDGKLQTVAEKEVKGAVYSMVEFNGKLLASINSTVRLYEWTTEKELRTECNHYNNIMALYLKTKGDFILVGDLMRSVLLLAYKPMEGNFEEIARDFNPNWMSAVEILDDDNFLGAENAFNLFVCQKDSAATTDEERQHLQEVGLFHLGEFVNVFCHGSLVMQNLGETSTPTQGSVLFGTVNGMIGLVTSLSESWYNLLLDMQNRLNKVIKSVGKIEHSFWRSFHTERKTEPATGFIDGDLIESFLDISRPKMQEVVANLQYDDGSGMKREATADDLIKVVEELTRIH

`COc1c(COC(=O)Nc2ccc(Oc3ccc(F)c(F)c3)cc2)ccc2c1C(=O)N([C@H]1CCC(=O)NC1=O)C2` (single isomer, unassigned) [Example 35, {2-[(3 S)-2,6-dioxopiperidin-3-yl]-4-methoxy-3-oxo-2,3-dihydro-1H-isoindol-5-yl}methyl N-[4-(3,4-difluorophenoxy)phenyl]carbamate] was tested, and the “degradation of Cyclin E1 protein” value (Cyclin E1) was “induced degradation of Cyclin E1 protein in a dose dependent manner”, the anti-tumor activity [1] was “dose-dependent anti-tumor activity” and the “inhibition of RB1 phosphorylation” value (pS807/811 Rb1) was “inhibited RB1 phosphorylation”. For the same molecule, the anti-tumor activity [2] was “dose-dependent anti-tumor activity”.
